Data on three compounds can be found in US20030017568A1, “Smooth muscle myosin phosphatase associated kinase” (priority 2001, published 2003).

One experiment deals with ROK. To be noted: hypertensive mice; cited from earlier work.
A further experiment concerns ZIP-like-kinase. Description: ZIP-like-kinase activity and phosphorylation in treated rabbit bladder smooth muscle (immunoprecipitates). The experiment is classed as cell-based.
Experiment [1] relates to ZIP-like-kinase (SMPP-1M associated kinase, MYPT-kinase). Nature of the experiment: In vitro kinase assay against the Thr697 peptide, native ZIP-like-kinase (MYPT-kinase) compared with ROK. In kind it is biochemical, cow. To be noted: levels needed versus ROK. The protocol:
Kinase and phosphatase assays. Kinase assays included 10 μL of enzyme diluted in 25 mM Hepes, pH 7.4, 1 mM DTT, and 100 μM Thr^697 peptide. Reactions were started with addition of 20 μL Mg^2+ ATP (5 mM MgCl2 and 0.1 mM ATP (5000 cpm/nmol) and carried out at 25° C. Reactions were terminated after 20 min with the addition of 100 μL of 20 mM H3PO4. Aliquots (100 μL) of the reaction mixture were spotted on to P81 paper and washed four times with 20 mM H3PO4. The P81 paper was placed into 1.5 mL Eppendorf tubes and ^32P incorporation was determined by scintillation counting. Phosphatase assays were carried out as described (Shirazi et al, J. Biol. Chem. 269:31598-31606 (1994)).
Purification of the SMPP-1M associated kinase. The SMPP-1M associated kinase was isolated from cow bladders following initial steps outlined for purification of SMPP-1M from pig bladder (Shirazi et al, J. Biol. Chem. 269:31598-31606 (1994)). Following extraction of the myofibrillar pellet, the extract was diluted with 2 volumes of buffer C (20 mM Tris, pH 7.5, 25 mM MgCl2, and 1 mM DTT with protease inhibitors), clarified by centrifugation (100,000 g, 45 min) and applied to a 5.0×10-cm column of ethylenediamine γ-linked ATP Sepharose equilibrated in buffer C. […] The purity of SMPP-1M kinase was assessed by SDS-PAGE and silver staining.

The subject of the next experiment is MYPT1. Description: MYPT1 phosphorylation in 32P-labeled intact smooth muscle (rabbit bladder). To be noted: carbachol stimulation. In kind it is cell-based.

With `C[C@@H](N)[C@H]1CC[C@H](C(=O)Nc2ccncc2)CC1` [Y-27632], the Blood pressure result with ROK is reported as “decreased blood pressure”. In addition, the “Inhibition of ZIP-like-kinase activity” value in the experiment with ZIP-like-kinase (10 μM, carbachol and calyculin A treated bladder) is given as “significant inhibition”. The “Inhibition of native ZIP-like-kinase (MYPT-kinase): levels relative to those for ROK” value in experiment [1] was 200 fold.

In the case of `COC[C@@H]([C@H](O)[C@H](O)C(=O)NCC[C@H](C)c1nc(/C=C/C[C@@H]2O[C@]3(C[C@@H](O)[C@@H]2C)O[C@H]([C@H](C[C@H](O)[C@H](C)[C@H](O)[C@H](C)/C=C(C)/C(C)=C/C=C/C(C)=C\C#N)OC)[C@H](OP(=O)(O)O)C3(C)C)co1)N(C)C` [calyculin A], in the experiment with ZIP-like-kinase (carbachol-treated bladder without calyculin A), the “Reduction of ZIP-like-kinase activation in the absence of calyculin A” value is “about 50%”.

Regarding `C[N+](C)(C)CCOC(N)=O` [carbachol], in the experiment with MYPT1, the “MYPT1 phosphorylation state (four phosphopeptides; major site Thr697)” value is reported as “increased”. Besides, the “ZIP-like-kinase phosphorylation and activation” value in the experiment on ZIP-like-kinase was “phosphorylated and activated”.
